The source of these data is patent US20250346592A1 (Celgene Corporation, priority 2022, published 2025).

As a reminder, the IC50 is the concentration that gives 50% inhibition.

Each structure is given as a SMILES string. A value given as a limit tells only on which side of the number the result lay.

For this experiment, the target named is hPAD4 enzyme (Homo sapiens (Human), UniProt Q9UM07). The experiment is described as follows: RFMS2 assay (RapidFire mass spectrometry, TSTGGRQGSHH peptide substrate). Type of experiment: biochemical. To be noted: 35 nM recombinant human PAD4, 500 μM TSTGGRQGSHH peptide, 30 minutes at room temperature; read-out: RFMS 2 IC50. The essentials: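 Recombinant human PAD4 (35 nM) with 500 μM TSTGGRQGSHH peptide in HEPES pH 7.4, 200 mM NaCl, 2 mM CaCl2, 5 mM DTT, 1.2% DMSO, 30 min at room temperature; 3-fold compound series, top 20 μM. Quenched with formic acid; substrate and citrullinated product quantified by RapidFire MRM mass spectrometry for IC50.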
Sequence of hPAD4 enzyme (Q9UM07 whole entry): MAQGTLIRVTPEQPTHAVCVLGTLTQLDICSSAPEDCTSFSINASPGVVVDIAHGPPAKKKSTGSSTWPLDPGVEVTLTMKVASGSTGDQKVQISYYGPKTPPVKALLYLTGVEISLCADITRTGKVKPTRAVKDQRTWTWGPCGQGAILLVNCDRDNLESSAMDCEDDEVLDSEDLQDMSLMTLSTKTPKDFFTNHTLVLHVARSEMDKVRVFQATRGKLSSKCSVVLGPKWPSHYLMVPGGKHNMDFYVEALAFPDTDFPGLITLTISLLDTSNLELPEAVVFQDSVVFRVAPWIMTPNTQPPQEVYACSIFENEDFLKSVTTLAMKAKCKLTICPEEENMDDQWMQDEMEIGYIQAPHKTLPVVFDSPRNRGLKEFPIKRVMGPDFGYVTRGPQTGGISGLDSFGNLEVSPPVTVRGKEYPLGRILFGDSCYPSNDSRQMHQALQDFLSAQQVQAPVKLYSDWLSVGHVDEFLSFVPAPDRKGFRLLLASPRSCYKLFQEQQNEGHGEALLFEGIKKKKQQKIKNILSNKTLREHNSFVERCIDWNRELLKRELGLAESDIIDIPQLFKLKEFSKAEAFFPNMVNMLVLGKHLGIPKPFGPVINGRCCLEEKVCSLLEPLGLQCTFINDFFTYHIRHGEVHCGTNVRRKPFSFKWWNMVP
As to `Cc1nncn1CCOc1cccc2cc(-c3nc4cc5c(cc4n3C)CCN(C[C@H](N)CF)C5=O)n(CC3CC3)c12` [Example 182, (S)-6-(2-amino-3-fluoropropyl)-2-(1-(cyclopropylmethyl)-7-(2-(3-methyl-4H-1,2,4-triazol-4-yl)ethoxy)-1H-indol-2-yl)-1-methyl-1,6,7,8-tetrahydro-5H-imidazo[4,5-g]isoquinolin-5-one], the concentration for half-maximal inhibition (IC50) is 0.101 to 0.5 µM.

For `COc1cccc2cc(-c3nc4cc5c(cc4n3C)CCN(C[C@H](N)CF)C5=O)n(Cc3ccco3)c12` [Example 141, (S)-6-(2-amino-3-fluoropropyl)-2-(1-(furan-2-ylmethyl)-7-methoxy-1H-indol-2-yl)-1-methyl-1,6,7,8-tetrahydro-5H-imidazo[4,5-g]isoquinolin-5-one], the IC50 is 0.101 to 0.5 µM.

With `Cc1cccc2cc(-c3nc4cc5c(cc4n3C)CCN(C[C@@H](C)N)C5=O)n(CC3CC3)c12` [Example 17, (R)-6-(2-aminopropyl)-2-(1-(cyclopropylmethyl)-7-methyl-1H-indol-2-yl)-1-methyl-1,6,7,8-tetrahydro-5H-imidazo[4,5-g]isoquinolin-5-one], the IC50 was in the range of 0.101 to 0.5 µM.

Consider `C[C@@H](N)CN1CCc2cc3c(cc2C1=O)nc(-c1cc2ccncc2n1CC1CC1)n3C` [Example 24, (R)-6-(2-aminopropyl)-2-(1-(cyclopropylmethyl)-1H-pyrrolo[2,3-c]pyridin-2-yl)-1-methyl-1,6,7,8-tetrahydro-5H-imidazo[4,5-g]isoquinolin-5-one], for which the IC50 was more than 1 µM.

Consider `Cc1ccc2cc(-c3nc4cc5c(cc4n3C)CCN(C[C@@H](C)N)C5=O)n(CC3CC3)c2c1C` [Example 16, (R)-6-(2-aminopropyl)-2-(1-(cyclopropylmethyl)-6,7-dimethyl-1H-indol-2-yl)-1-methyl-1,6,7,8-tetrahydro-5H-imidazo[4,5-g]isoquinolin-5-one], for which the IC50 was 0.101 to 0.5 µM.

`COC(=O)NC[C@H](C)Oc1cccc2cc(-c3nc4cc5c(cc4n3C)CCN(C[C@H](N)CF)C5=O)n(CC3CC3)c12` [Example 202, methyl ((S)-2-((2-(6-((S)-2-amino-3-fluoropropyl)-1-methyl-5-oxo-5,6,7,8-tetrahydro-1H-imidazo[4,5-g]isoquinolin-2-yl)-1-(cyclopropylmethyl)-1H-indol-7-yl)oxy)propyl) carbamate]: the IC50 was in the range of 0.101 to 0.5 µM.

As to `COCCn1c(-c2nc3cc4c(cc3n2C)CCN(C[C@@H](C)N)C4=O)cc2ccccc21` [Example 76, (R)-6-(2-aminopropyl)-2-(1-(2-methoxyethyl)-1H-indol-2-yl)-1-methyl-1,6,7,8-tetrahydro-5H-imidazo[4,5-g]isoquinolin-5-one], the IC50 is more than 1 µM.

Turning to `Cn1c(-c2cc3cccc(OCCc4cocn4)c3n2CC2CC2)nc2cc3c(cc21)CCN(C[C@H](N)CF)C3=O` [Example 196, (S)-6-(2-amino-3-fluoropropyl)-2-(1-(cyclopropylmethyl)-7-(2-(oxazol-4-yl)ethoxy)-1H-indol-2-yl)-1-methyl-1,6,7,8-tetrahydro-5H-imidazo[4,5-g]isoquinolin-5-one], the IC50 lay within 0.101 to 0.5 µM.

Consider `COCC(C)c1ccc2cc(-c3nc4cc5c(cc4n3C)CCN(C[C@@H](C)N)C5=O)n(CC3CC3)c2c1` (single isomer, unassigned) [Example 41], for which the IC50 lay within 0.101 to 0.5 µM.

For the compound `C[C@@H](N)CN1CCc2cc3c(cc2C1=O)nc(-c1cc2ccc(C(F)(F)F)cc2n1CC1CC1)n3C` [Example 20, (R)-6-(2-aminopropyl)-2-(1-(cyclopropylmethyl)-6-(trifluoromethyl)-1H-indol-2-yl)-1-methyl-1,6,7,8-tetrahydro-5H-imidazo[4,5-g]isoquinolin-5-one], the IC50 lay within 0.101 to 0.5 µM.

Consider `C[C@@H](N)CN1CCc2cc3c(cc2C1=O)nc(-c1cc2ccccc2n1CCC1CC1)n3C` [Example 77, (R)-6-(2-aminopropyl)-2-(1-(2-cyclopropylethyl)-1H-indol-2-yl)-1-methyl-1,6,7,8-tetrahydro-5H-imidazo[4,5-g]isoquinolin-5-one], for which the IC50 was in the range of 0.101 to 0.5 µM.

Take `Cn1c(-c2cc3cccc(OC[C@H]4CCC(=O)N4)c3n2CC2CC2)nc2cc3c(cc21)CCN(C[C@H](N)CF)C3=O` [Example 157, 6-((S)-2-amino-3-fluoropropyl)-2-(1-(cyclopropyl-methyl)-7-(((R)-5-oxopyrrolidin-2-yl)methoxy)-1H-indol-2-yl)-1-methyl-1,6,7,8-tetrahydro-5H-imidazo [4,5-g]isoquinolin-5-one]: the IC50 fell in the range of 0.101 to 0.5 µM.

In the case of `COC1(Cn2c(-c3nc4cc5c(cc4n3C)CCN(C[C@H](N)CF)C5=O)cc3ccccc32)CC1` [Example 147, (S)-6-(2-amino-3-fluoropropyl)-2-(1-((1-methoxycyclopropyl)methyl)-1H-indol-2-yl)-1-methyl-1,6,7,8-tetrahydro-5H-imidazo[4,5-g]isoquinolin-5-one], the IC50 is more than 1 µM.

In the case of `Cn1c(-c2cc3cccc(OC[C@@H]4COCCN4)c3n2CC2CC2)nc2cc3c(cc21)CCN(C[C@H](N)CF)C3=O` [Example 187, 6-((S)-2-amino-3-fluoropropyl)-2-(1-(cyclopropylmethyl)-7-(((S)-morpholin-3-yl)methoxy)-1H-indol-2-yl)-1-methyl-1,6,7,8-tetrahydro-5H-imidazo[4,5-g]isoquinolin-5-one], the IC50 was more than 1 µM.

As to `COc1ccc2cc(-c3nc4cc5c(cc4n3C)CCN(C[C@H](N)CF)C5=O)n(Cc3ccno3)c2c1` [Example 112, (S)-6-(2-amino-3-fluoropropyl)-2-(1-(isoxazol-5-ylmethyl)-6-methoxy-1H-indol-2-yl)-1-methyl-1,6,7,8-tetrahydro-5H-imidazo[4,5-g]isoquinolin-5-one], the IC50 lay in the range of 0.101 to 0.5 µM.

For `C[C@@H](N)CN1CCc2cc3c(cc2C1=O)nc(-c1cc2ccc(=O)[nH]c2n1CC1CC1)n3C` [Example 45, (R)-6-(2-aminopropyl)-2-(1-(cyclopropylmethyl)-6-oxo-6,7-dihydro-1H-pyrrolo[2,3-b]pyridin-2-yl)-1-methyl-1,6,7,8-tetrahydro-5H-imidazo[4,5-g]isoquinolin-5-one], the 50% inhibitory concentration (IC50) is more than 1 µM.

Turning to `COC(=O)NC[C@@H](C)Oc1cccc2cc(-c3nc4cc5c(cc4n3C)CCN(C[C@H](N)CF)C5=O)n(CC3CC3)c12` [Example 200, methyl ((R)-2-((2-(6-((S)-2-amino-3-fluoropropyl)-1-methyl-5-oxo-5,6,7,8-tetrahydro-1H-imidazo[4,5-g]isoquinolin-2-yl)-1-(cyclopropylmethyl)-1H-indol-7-yl)oxy)propyl)carbamate], the IC50 lay within 0.101 to 0.5 µM.

`CC(C)Cn1c(-c2nc3cc4c(cc3n2C)CCN(C[C@@H](C)N)C4=O)cc2ccccc21` [Example 74, (R)-6-(2-aminopropyl)-2-(1-isobutyl-1H-indol-2-yl)-1-methyl-1,6,7,8-tetrahydro-5H-imidazo[4,5-g]isoquinolin-5-one]: the IC50 fell in the range of 0.501 to 1 µM.

With `COCCn1c(-c2nc3cc4c(cc3n2C)CCN(C[C@H](N)CF)C4=O)cc2ccnc(OC)c21` [Example 110, (S)-6-(2-amino-3-fluoropropyl)-2-(7-methoxy-1-(2-methoxyethyl)-1H-pyrrolo[2,3-c]pyridin-2-yl)-1-methyl-1,6,7,8-tetrahydro-5H-imidazo[4,5-g]isoquinolin-5-one], the IC50 is more than 1 µM.

`Cn1c(-c2cc3ccc(C4CC4)nc3n2CC2CC2)nc2cc3c(cc21)CCN(C[C@H](N)CF)C3=O` [Example 59, (S)-6-(2-amino-3-fluoropropyl)-2-(6-cyclopropyl-1-(cyclopropylmethyl)-1H-pyrrolo[2,3-b]pyridin-2-yl)-1-methyl-1,6,7,8-tetrahydro-5H-imidazo[4,5-g]isoquinolin-5-one]: the IC50 lay in the range of 0.101 to 0.5 µM.

Take `COc1c(F)ccc2cc(-c3nc4cc5c(cc4n3C)CCN(C[C@H](N)CF)C5=O)n(CC3CC3)c12` [Example 66, (S)-6-(2-amino-3-fluoropropyl)-2-(1-(cyclopropylmethyl)-6-fluoro-7-methoxy-1H-indol-2-yl)-1-methyl-1,6,7,8-tetrahydro-5H-imidazo[4,5-g]isoquinolin-5-one]: the IC50 was in the range of 0.101 to 0.5 µM.

Consider `COc1cccc2cc(-c3nc4cc5c(cc4n3C)CCN(C[C@H](N)CF)C5=O)n(Cc3ocnc3C)c12` [Example 142, (S)-6-(2-amino-3-fluoropropyl)-2-(7-methoxy-1-((4-methyloxazol-5-yl)methyl)-1H-indol-2-yl)-1-methyl-1,6,7,8-tetrahydro-5H-imidazo[4,5-g]isoquinolin-5-one], for which the IC50 fell in the range of 0.101 to 0.5 µM.

Turning to `COc1ccc2cc(-c3nc4cc5c(c(F)c4n3C)CCN(C[C@H](N)CF)C5=O)n(CC3CC3)c2c1` [Example 239, (S)-6-(2-amino-3-fluoropropyl)-2-(1-(cyclopropylmethyl)-6-methoxy-1H-indol-2-yl)-9-fluoro-1-methyl-1,6,7,8-tetrahydro-5H-imidazo[4,5-g]isoquinolin-5-one], the half-inhibitory concentration (IC50) is 0.501 to 1 µM.

Turning to `Cn1c(-c2cc3cccc(OCc4cnco4)c3n2CC2CC2)nc2cc3c(cc21)CCN(C[C@H](N)CF)C3=O` [Example 166, (S)-6-(2-amino-3-fluoropropyl)-2-(1-(cyclopropyl-methyl)-7-(oxazol-5-ylmethoxy)-1H-indol-2-yl)-1-methyl-1,6,7,8-tetrahydro-5H-imidazo[4,5-g] isoquinolin-5-one], the IC50 is 0.101 to 0.5 µM.

Regarding `COc1ccc2cc(-c3nc4cc5c(cc4n3C)CCN(C[C@@H](C)N)C5=O)n(CC3CC3)c2c1` [Example 18, (R)-6-(2-aminopropyl)-2-(1-(cyclopropylmethyl)-6-methoxy-1H-indol-2-yl)-1-methyl-1,6,7,8-tetrahydro-5H-imidazo[4,5-g]isoquinolin-5-one], the half-inhibitory concentration (IC50) was 0.101 to 0.5 µM.

`COc1cccc2cc(-c3nc4cc5c(cc4n3C)CCN(C[C@H](N)CF)C5=O)n(Cc3ccnnc3)c12` [Example 144, (S)-6-(2-amino-3-fluoropropyl)-2-(7-methoxy-1-(pyridazin-4-ylmethyl)-1H-indol-2-yl)-1-methyl-1,6,7,8-tetrahydro-5H-imidazo[4,5-g]isoquinolin-5-one]: the IC50 was in the range of 0.101 to 0.5 µM.
